What was measured:
[1] = test system: mouse passaged primary human hepatocytes; test: EdU incorporation in mouse passaged primary human hepatocytes (mpPHH); format: cell-based; conditions: 20 ng/ml each, 4 hours (FIG. 19E-F)
Experimental: Mouse passaged primary human hepatocytes. Mouse-passaged primary human hepatocytes (mpPHHs) were collected as previously described (Michailidis et al., Proc Natl Acad Sci USA. 2020; 117(3): 1678-1688) and cultured in hepatocyte culture media (CC-3198, Lonza, Basel, Switzerland) in collagen-coated chamber slides. Three days before treatment, mpPHH were incubated in William's E media (with L-glutamine). Vehicle, NTF3, BDNF, or HGF (20 ng/ml each) were diluted in William's E (without L-glutamine) and EdU (EdU Cell Proliferation kit, Alexa Flour 555, Thermo Fisher Scientific, Waltham, MA; C10638) was added to each well. mpPHH were incubated for 4 hours and the experiment terminated by fixing the mpPHH in 4% paraformaldehyde/PFA and permeablized with Triton X-100. Click-iT™ EdU staining was then performed according to the manufacturer's instructions. mpPHH were mounted with Flouromount G and imaged with Nikon confocal microscope. 5-15 images per treatment per experiment were randomly taken and EdU positive nuclei quantified.
EdU incorporation and imaging in HDO and mpPHH. A chamber slide was pre-chilled on ice and coated with Matrigel®. Chamber slide was then incubated for 3 min at 37° C. to solidify and organoids plated in 0.02% Matrigel®/complete media into coated chamber slides. Organoids were grown in complete organoid growth media (OGM) for approximately 4 days followed by incubation in organoid differentiation media (ODM) for another 4 days. Organoids were changed to William's E medium 1 day prior to experiment. Vehicle or NTF3, BDNF, HGF (20 ng/ml final concentration each) or Taletrectinib (Fisher Scientific, Waltham, MA; 502030245, final concentration 10 nM) were diluted in William's E (without L-glutamine) and added to organoids. CLICK-iT™ EdU (EdU final concentration […] incubated together with the vehicle, NTF3, BDNF or HGF). […] Five to fifteen images of random high-power fields were obtained per experiment per treatment and EdU+/Hoechst 33342+ nuclei versus all Hoechst 33342+ nuclei quantified.

CCND1 = test: Western blot of CCND1 in AML12 cell lysates; format: cell-based, mouse; conditions: AML12 (FIG. 9I-J)
Experimental: Human HepG2 and mouse AML12 cells were grown in 6-well plates. Cells were treated with NTF3 (20 ng/ml) purchased from STEMCELL technologies, Vancouver, Canada (cat. 78074), R&D Systems, Minneapolis, MN (267-N3), Gibco, Waltham, MA (PHC7036) and/or Loxo-195 (5-10 nM) (Selleckchem, Houston, TX; S8636) in complete growth media without L-glutamine for 2 hours. Lyophilized NTF3 was solubilized with sterile filtered PBS supplemented with 0.1% BSA, aliquoted and stored at −80° C. until use. […] HepG2 and AML12 cells were collected on ice in PBS, centrifuged for 10 sec […] cell pellet homogenized in RIPA buffer containing inhibitors (Roche, Basel, Switzerland; complete Mini proteinase inhibitor, 1×HALT phosphatase inhibitors, Thermo Scientific, Waltham, MA; cat. 78428). Cell lysates were sonicated and centrifuged for 10 min at 18,800×g. Protein concentration of supernatants were determined by Direct Detect Spectrophotometer (MilliporeSigma, Burlington, MA).
For immunoblot analysis, 30-50 μg of protein diluted in LSD sample buffer (Invitrogen, Waltham, MA) were analyzed per SDS-PAGE (NuPAGE™, Invitrogen, Waltham, MA) using MOPS buffer or MES buffer (Invitrogen, Waltham, MA). […] Semi-quantitative band densitometry was performed using ImageJ software (version 1.53).

[2] = test system: hepatocytic differentiated human ductal organoids; test: EdU incorporation in hepatocytic differentiated human ductal organoids (HDO); format: cell-based; conditions: for EdU+ cells compared to vehicle only: 20 ng/ml, 6 hours, William's E without L-glutamine (FIG. 19A-B)
Experimental: Human ductal organoids. The normal human liver tissue was obtained through the Cooperative Human Tissue Network (CHTN) at Vanderbilt University Medical Center. The liver was cut into very small pieces in liver digestion medium (Gibco, Waltham, MA; 17703-034). The cell suspension was filtered through a 100-μm cell strainer. The flow through was then centrifuged for 2 min at 100 g, 4° C., and the cell pellet resuspended in ice-cold DMEM (Gibco, Waltham, MA; 11885-084, supplemented by 5% FBS) and centrifuged for 2 min at 300 g. The cell pellet was gently resuspended in Matrigel® (Corning, Corning, NY; 356231) and a […] dome plated in a 24-well plate. The plate was incubated for 10-15 min at 37° C. After solidifying, complete HepatiCult™ Organoid Initiation Medium (OIM) (STEMCELL Technologies, Vancouver, Canada; 100-0384) was added. For passaging, the Matrigel dome was dissociated using TrypLE (Thermo Fisher Scientific, Waltham, MA; 12604013) and incubated at 37° C. for 5 mins. Organoids were washed by resuspending in advanced DMEM/F12 and consecutive resuspension of the organoid pellet. Organoids were resuspended at a 1:10 dilution in Matrigel® and cultured in complete HepatiCult™ Organoid Growth Medium (OGM) (STEMCELL Technologies, Vancouver, Canada; 100-0385) for organoid expansion. For hepatocytic differentiation of hepatic ductal organoids, culture medium was changed to complete HepatiCult™ Organoid Differentiation Medium (ODM) (STEMCELL Technologies, 100-0383) 4 days after passaging. Vehicle, NTF3, BDNF, HGF (20 ng/ml final concentration) or Taletrectinib (Fisher Scientific, Waltham, MA; 502030245, final concentration 10 nM) or torin2 (Fisher Scientific, Waltham, MA; s2817, final concentration 25 nM) were diluted in William's E (without L-glutamine) and added to organoids.
EdU incorporation and imaging in HDO and mpPHH. A chamber slide was pre-chilled on ice and coated with Matrigel®. Chamber slide was then incubated for 3 min at 37° C. to solidify and organoids plated in 0.02% Matrigel®/complete media into coated chamber slides. Organoids were grown in complete organoid growth media (OGM) for approximately 4 days followed by incubation in organoid differentiation media (ODM) for another 4 days. Organoids were changed to William's E medium 1 day prior to experiment. Vehicle or NTF3, BDNF, HGF (20 ng/ml final concentration each) or Taletrectinib (Fisher Scientific, Waltham, MA; 502030245, final concentration 10 nM) were diluted in William's E (without L-glutamine) and added to organoids. CLICK-iT™ EdU (EdU final concentration […] incubated together with the vehicle, NTF3, BDNF or HGF). After 6 hours, organoids were fixed with 4% paraformaldehyde and permeabilized with 0.5% Triton-X 100. Further processing was performed according to CLICK-ITT EdU manufacturer's instructions. mpPHHs were seeded on collagen coated chamber slides and grown in complete hepatocyte medium (Lonza, Basel, Switzerland). Prior to EdU incorporation assays, mpPHHs were cultured in William's E medium. Vehicle or NTF3, BDNF, HGF (20 ng/ml final concentration each) or Taletrectinib (Fisher Scientific, Waltham, MA; 502030245, final concentration 10 nM) were diluted in William's E (without L-glutamine) and added to mpPHHs. Organoids were imaged in PBS in chamber slides, mpHHs were mounted with fluoromount. Five to fifteen images of random high-power fields were obtained per experiment per treatment and EdU+/Hoechst 33342+ nuclei versus all Hoechst 33342+ nuclei quantified.

Molecule: NTF3: neurotrophin-3, recombinant protein; HSC-derived hepatocyte mitogen, ligand of TRKA, TRKB, TRKC
- EdU+ nuclei compared to vehicle only [1]: increased EdU+ nuclei
- CCND1 amounts, NTF3 from three different vendors (CCND1): CCND1 amounts increased
- EdU+ cells compared to vehicle only [2]: significantly increased EdU+ cells
- EdU+ cells compared to vehicle alone, taletrectinib experiment ([2]; NTF3 20 ng/ml (FIG. 19C-D)): significant increase of EdU+ cells

B1: BDNF: brain-derived neurotrophic factor, neurotrophin specific for TrkB (protein)
chain: HSDPARRGELSVCDSISEWVTAADKKTAVDMSGGTVTVLEKVPVSKGQLKQYFYETKCNPMGYTKEGCRGIDKRHWNSQCRTTQSYVRALTMDSKKRIGWRFIRIDTSCVCTLTIKRGR
- EdU+ nuclei compared to vehicle only [1]: increased EdU+ nuclei
- EdU+ cells compared to vehicle only [2]: significantly increased EdU+ cells

B2: HGF: hepatocyte growth factor, complete hepatocyte mitogen used as comparator (protein, UniProt Q08048 33-495; Q08048 496-728, looked up)
Hepatocyte growth factor …: QKKRRNTLHEFKKSAKTTLTKEDPLLKIKTKKVNSADECANRCIRNRGFTFTCKAFVFDKSRKRCYWYPFNSMSSGVKKGFGHEFDLYENKDYIRNCIIGKGGSYKGTVSITKSGIKCQPWNSMIPHEHSFLPSSYRGKDLQENYCRNPRGEEGGPWCFTSNPEVRYEVCDIPQCSEVECMTCNGESYRGPMDHTESGKTCQRWDQQTPHRHKFLPERYPDKGFDDNYCRNPDGKPRPWCYTLDPDTPWEYCAIKTCAHSAVNETDVPMETTECIQGQGEGYRGTSNTIWNGIPCQRWDSQYPHKHDITPENFKCKDLRENYCRNPDGAESPWCFTTDPNIRVGYCSQIPKCDVSSGQDCYRGNGKNYMGNLSKTRSGLTCSMWDKNMEDLHRHIFWEPDASKLNKNYCRNPDDDAHGPWCYTGNPLIPWDYCPISRCEGDTTPTIVNLDHPVISCAKTKQLR
Hepatocyte growth factor beta …: VVNGIPTQTTVGWMVSLKYRNKHICGGSLIKESWVLTARQCFPARNKDLKDYEAWLGIHDVHERGEEKRKQILNISQLVYGPEGSDLVLLKLARPAILDNFVSTIDLPSYGCTIPEKTTCSIYGWGYTGLINADGLLRVAHLYIMGNEKCSQHHQGKVTLNESELCAGAEKIGSGPCEGDYGGPLICEQHKMRMVLGVIVPGRGCAIPNRPGIFVRVAYYAKWIHKVILTYKL
- EdU+ nuclei compared to vehicle only [1]: increased EdU+ nuclei
- EdU+ cells compared to vehicle only [2]: significantly increased EdU+ cells
